The text below walks through data of patent US11000458B2, “Method and product for producing formulations containing ceramide” (Evonik Operations GmbH, priority 2017, dated 2021).

This data set is described as follows: Minimum required dissolution temperature of ceramide NP in oils. The class given is physicochemical. How it is done: The minimum required dissolution temperature for 0.1 g of ceramide NP in 20 g of various oils was determined.

With Ceramide NP, the required dissolution temperatures stood at 95 °C (0.1 g of ceramide NP in 20 g Caprylic/Capric Triglycerides (TEGOSOFT ® CT)), 100 °C (0.1 g of ceramide NP in 20 g Ethylhexyl Stearate (TEGOSOFT ® OS)) and 100 °C (0.1 g of ceramide NP in 20 g Persea gratissima (Avocado) oil).
